Values of other authors in patent US20150050358A1, “IMPLANT SUPPORT COMPOSITION AND METHODS OF USE” (REGENTS OF THE UNIVERSITY OF MINNESOTA, priority 2013, published 2015).

Conditions: antibiotic solution

With Cc1ncc([N+](=O)[O-])n1CCO [metronidazole] as the molecule, how does the pH of solution read?
The pH of solution was 4.5-7.0 pH.
